The text below walks through data of ChEMBL document CHEMBL4411274, “Recent advances of tetrazole derivatives as potential anti-tubercular and anti-malarial agents” (Eur J Med Chem, 2019).

The test system of assay [1] is Mycobacterium kansasii. As to the kind of experiment: Antibacterial activity against Mycobacterium kansasii CNCTC My 235/80. It is filed as functional.
Assay [2] deals with Mycobacterium kansasii. As to the kind of experiment: Antibacterial activity against Mycobacterium kansasii isolate 6509/96. The assay is classed as functional.
Assay [3] deals with Mycobacterium avium. In words: Antibacterial activity against Mycobacterium avium CNCTC My 330/88. It is filed as functional.
The test system of assay [4] is Mycobacterium kansasii. In words: Potency index, ratio of isoniazid MIC to compound MIC for Mycobacterium kansasii CNCTC My 235/80. It is filed as functional.
For assay [5], the system named is Mycobacterium tuberculosis. As to the kind of experiment: Antibacterial activity against Mycobacterium tuberculosis CNCTC My 331/88. It is filed as functional.
Assay [6] has as its system Mycobacterium avium. As to the kind of experiment: Potency index, ratio of isoniazid MIC to compound MIC for Mycobacterium avium CNCTC My 330/88. It is filed as functional.
For assay [7], the system named is Mycobacterium tuberculosis. In words: Antibacterial activity against Mycobacterium tuberculosis H37Rv after 5 days. The assay is classed as functional. Particulars: 120 h.
Assay [8] concerns Mycobacterium tuberculosis. As to the kind of experiment: Antibacterial activity against Mycobacterium tuberculosis H37Rv. The assay is classed as functional.
Assay [9] relates to Plasmodium falciparum. As to the kind of experiment: Antimalarial activity against ring-stage chloroquine-susceptible Plasmodium falciparum 3D7 preincubated for 6 hrs followed by compound wash and measured after 66 hrs by Giemsa-staining based light microscopic analysis. The assay is classed as functional, organism-based.
In assay [10] the test system is Plasmodium falciparum. As to the kind of experiment: Antimalarial activity against ring-stage multidrug-resistant Plasmodium falciparum Dd2 preincubated for 6 hrs followed by compound wash and measured after 66 hrs by Giemsa-staining based light microscopic analysis. The assay is classed as functional, organism-based.
Assay [11] deals with Plasmodium falciparum. As to the kind of experiment: Antimalarial activity against chloroquine resistant Plasmodium falciparum FcB1R. The assay is classed as functional, organism-based.
Assay [12] concerns Mycobacterium tuberculosis. In words: Antibacterial activity against Mycobacterium tuberculosis H37Rv by resazurin dye-based assay. The assay is classed as functional.
Assay [13] relates to Mycobacterium tuberculosis. As to the kind of experiment: Antibacterial activity against Mycobacterium tuberculosis H37Rv by MABA. It is filed as functional.

Each structure is given as a SMILES string. Values after ≈ are worked out from the molar mass of the structure shown.

`Clc1ccc(-n2nnnc2SCc2ccccc2)cc1Cl`: the MIC with Mycobacterium kansasii [1] lay in the range of 8 to 250 µg/mL (≈ 23.7 to 741 µM); against Mycobacterium kansasii [2], 8 to 62.5 µg/mL (≈ 23.7 to 185 µM); with Mycobacterium avium [3], 8 to 250 µg/mL (≈ 23.7 to 741 µM); in [5] it was 8 to 62.5 µg/mL (≈ 23.7 to 185 µM). For the same compound, the Ratio with Mycobacterium kansasii [4] and with Mycobacterium avium [6] was greater than 4 in each case. As to `Cn1nnnc1SC1=CS(=O)(=O)c2ccccc21`, the MIC in assay [7] stood at 2.6 µM (≈ 0.729 µg/mL). `Cc1ccc(-n2c(-c3cc4cc(Cl)ccc4n4nnnc34)nc(-c3ccccc3)c2-c2ccccc2)cc1` showed an MIC in assay [8] of 25 µg/mL (≈ 48.7 µM). As to `Cn1nnc(NCC2CCC3(CC2)OOC2(O3)C3CC4CC(C3)CC2C4)n1` (stereo not given), the figures for the IC50 in the assay with Plasmodium falciparum [9] and in the assay with Plasmodium falciparum [10] were 2.9 nM and 2.1 nM, respectively.

The compound `CC1=C(CCc2nnnn2CCCC#N)C(=O)c2ccccc2C1=O` gave an IC50 with Plasmodium falciparum [11] of 900 to 1400 nM. For the compound `COc1ccc(C2C(Cl)C(=O)N2NC(=O)Cn2nnnc2-c2ccccc2)cc1` (stereo not given), in [12], the lowest concentration to inhibit growth (MIC) was 0.156 µg/mL (≈ 0.378 µM). Take `Cc1ccc2c(c1)cc(C1C3=C(CC(C)(C)CC3=O)N(c3ccc(F)cc3)C3=C1C(=O)CC(C)(C)C3)c1nnnn12`: the MIC in [8] was determined as 50 µg/mL (≈ 91 µM).

Compound `CC1=C(CCc2nnnn2CCCCCC#N)C(=O)c2ccccc2C1=O` displayed an IC50 in the assay on Plasmodium falciparum [11] of 900 to 1400 nM.

For the compound `CN(C)c1ccc(C2C(Cl)C(=O)N2NC(=O)Cn2nnnc2-c2ccccc2)cc1` (stereo not given), in [12], the MIC was 0.156 µg/mL (≈ 0.366 µM). `C1C2CC3CC1CC(C2)C31OOC2(CCC(Nc3nnn[nH]3)CC2)OO1` (stereo not given): the values for the IC50 in the assay on Plasmodium falciparum [9] and in the assay with Plasmodium falciparum [10] were 63 nM and 43.5 nM, respectively. On to `c1ccc(-n2nnnc2OCC2CCC3(CC2)OOC2(O3)C3CC4CC(C3)CC2C4)cc1` (stereo not given), for which the IC50 in the assay on Plasmodium falciparum [9] and in the assay on Plasmodium falciparum [10] was 2.1 to 24.4 nM throughout. In turn, `Cc1ccc(C2C(Cl)C(=O)N2NC(=O)Cn2nnnc2-c2ccccc2)cc1` (stereo not given) gave an MIC in assay [12] greater than 6.25 µg/mL. For the compound `CC1=C(CCc2nnnn2CCCCC#N)C(=O)c2ccccc2C1=O`, the IC50 with Plasmodium falciparum [11] lay in the range of 900 to 1400 nM.

`c1cnc(-c2nn3nnnc3o2)cn1`: 50 µg/mL (≈ 264 µM) was the least that counted as inhibitory in assay [8] (MIC). As to `O=C(Cn1nnnc1-c1ccccc1)NN1C(=O)C(Cl)C1c1ccc([N+](=O)[O-])cc1` (stereo not given), the MIC in assay [12] is greater than 6.25 µg/mL. For `C1C2CC3CC1CC(C2)C31OOC2(CCC(Nc3nnn[nH]3)CC2)O1` (stereo not given), the figures for the IC50 in the assay on Plasmodium falciparum [9] and in the assay with Plasmodium falciparum [10] were 2.8 nM and 2.5 nM, respectively. For `C[C@@H]1CC[C@H]2[C@@H](C)C(=O)O[C@@H]3O[C@@]4(C)CC[C@@H]1[C@]32OO4` [ARTEMISININ], the IC50 with Plasmodium falciparum [9] came to 4 nM; in the assay on Plasmodium falciparum [10], 2.5 nM.

For `C[C@H]1[C@@H](O)O[C@@H]2O[C@@]3(C)CC[C@H]4[C@H](C)CC[C@@H]1[C@@]24OO3` [ARTENIMOL], the IC50 with Plasmodium falciparum [9] turned out to be 4.7 nM; in the assay with Plasmodium falciparum [10], 4.2 nM. Regarding `C[C@H]1[C@H](OC(=O)CCC(=O)O)O[C@@H]2O[C@@]3(C)CC[C@H]4[C@H](C)CC[C@@H]1[C@@]24OO3` [ARTESUNATE], the values for the IC50 in the assay on Plasmodium falciparum [9] and in the assay with Plasmodium falciparum [10] were 5.1 nM and 4.6 nM, respectively. Take `CC[C@@H](CO)NCCN[C@@H](CC)CO` [ETHAMBUTOL]: the MIC in [13] was found to be 1.56 µg/mL (≈ 7.64 µM); in [8], 2 µg/mL (≈ 9.79 µM).

Regarding `NNC(=O)c1ccncc1` [ISONIAZID], the MIC in the assay with Mycobacterium kansasii [2] turned out to be 4 µg/mL (≈ 29.2 µM); in assay [12], 0.063 µg/mL (≈ 0.459 µM); in [5], 0.5 µg/mL (≈ 3.65 µM); in [8], 0.2 µg/mL (≈ 1.46 µM). As to `CO[C@H]1/C=C/O[C@@]2(C)Oc3c(C)c(O)c4c(O)c(c(/C=N/N5CCN(C)CC5)c(O)c4c3C2=O)NC(=O)/C(C)=C\C=C\[C@H](C)[C@H](O)[C@@H](C)[C@@H](O)[C@@H](C)[C@H](OC(C)=O)[C@@H]1C` [RIFAMPIN], the minimum inhibitory concentration (MIC) in [12] is 0.006 µg/mL (≈ 0.00729 µM); in [8], 0.25 to 40 µg/mL (≈ 0.304 to 48.6 µM). For the compound `CN[C@@H]1[C@H](O[C@H]2[C@H](O[C@H]3[C@H](O)[C@@H](O)[C@H](N=C(N)N)[C@@H](O)[C@@H]3N=C(N)N)O[C@@H](C)[C@]2(O)C=O)O[C@@H](CO)[C@H](O)[C@H]1O` [STREPTOMYCIN], the MIC in [8] was found to be 4 µg/mL (≈ 6.88 µM).
